From US10654835B2, “Compounds and methods for inhibiting JAK” (Dizal (Jiangsu) Pharmaceutical Co., Ltd., priority 2015, dated 2020)
Entries after “also recorded” stand apart in the source; their conditions may differ.

Assays:
pSTAT3 (Y705) [1] = experiment: pSTAT3 knockdown in LG1049 tumors (Example 72); format: in vivo, mice; settings: Example 32 25 mg/kg BID, 5 days of treatment, 4H after the final dose
Protocol: (§1) Tumor volume was measured twice a week.

[2] = tested on: LG1049 non-small cell lung cancer PDX tumor xenografts; experiment: LG1049 xenograft PDX model, antitumor activity (Example 72); format: in vivo, mice; settings: for tumor regrowth when treatment was stopped after 28 days: osimertinib single agent or osimertinib + Example 32
Protocol: Summary: LG1049 non-small cell lung cancer PDX tumor xenografts were grown subcutaneously in female NSG mice. […] Tumor volume was measured twice a week.

[3] = tested on: NCI-H1650 tumor xenografts; experiment: H1650 xenograft model, antitumor activity (Example 71); format: in vivo, mice
Protocol: as §1
(§2) Twenty-three days after cell implantation, the mice were randomized into 6 groups (9 mice/group, average tumor volume 257 mm^3, range 205-303 mm^3). […] Drug levels in plasma were measured by LC/MS, using a Linear Ion Trap Quadrupole LC/MS/MS Mass Spectrometer (QTRAP 5500 model 1024945-BB, AB Sciex Instruments), with separation on a Waters Xbridge C18 column.

[4] = Drug levels in plasma, H1975 xenograft mice (Example 69); format: in vivo; settings: increasing dose of Example 32, one day of treatment
Protocol: (§3) Materials and Methods: NCI-H1975 cells (a human NSCLC cell line with L858R and T790M mutations in the EGFR gene) tumor cells were implanted subcutaneously in female NCr nude mice (Taconic Laboratories), 3×10^6 cells/mouse. […] Drug levels in plasma were measured by LC/MS, using a Linear Ion Trap Quadrupole LC/MS/MS Mass Spectrometer (QTRAP 5500 model 1024945-BB, AB Sciex Instruments), with separation on a Waters Xbridge C18 column.

PC-9 tumor xenografts = experiment: PC-9 xenograft model, antitumor activity (Example 70); format: in vivo, mice
Protocol: as §1

[5] = tested on: NCI-H1975 tumor xenografts; experiment: H1975 xenograft model, intermittent Example 32 dosing schedules, antitumor activity (Example 73); format: in vivo, mice
Protocol: as §1
Materials and Methods: NCI-H1975 cells (a human NSCLC cell line with L858R and T790M mutations in the EGFR gene), were implanted subcutaneously in female NCr nude mice (Taconic Laboratories), 3×10^6 cells/mouse.

pSTAT3 (Y705) [6] = experiment: pSTAT3 knockdown in PC-9 tumors (Example 70); format: in vivo, mice; settings: gefitinib + Example 32 12.5 and 50 mg/kg BID; 2, 8 and 24 hours after the AM dose, last day
Protocol: as §1

pSTAT3 = pSTAT3 knockdown in NCI-H1650 tumors (Example 71); format: in vivo, mice; settings: Example 32 as single agent and in combination with gefitinib, after one day of treatment
Protocol: as §1, §2

[7] = tested on: NCI-H1975 tumor xenografts; experiment: H1975 xenograft model, antitumor activity (Example 69); format: in vivo, mice
Protocol: as §1
Materials and Methods: NCI-H1975 cells (a human NSCLC cell line with L858R and T790M mutations in the EGFR gene) tumor cells were implanted subcutaneously in female NCr nude mice (Taconic Laboratories), 3×10^6 cells/mouse.

[8] = LG1049 xenograft PDX model, body weight (Example 72); format: in vivo, mice
From the text: Materials and Methods: LG1049 tumor fragments were implanted subcutaneously in female NSG mice (JAX Stock No. 005557). Once tumor volumes reached ˜125-275 mm^3, mice were randomized into 5 groups (10 mice/group, average tumor volume 189 mm^3, range 138-253 mm^3).

pSTAT3 (Y705) [9] = experiment: pSTAT3 knockdown in NCI-H1975 tumors (Example 69); format: in vivo, mice; settings: Example 32 12.5, 25, 50 mg/kg BID, after one day of treatment
Protocol: as §1, §3

pEGFR = pEGFR knockdown in LG1049 tumors (Example 72); format: in vivo, mice; settings: osimertinib 25 mg/kg QD, 5 days of treatment, 4H after the final dose

COc1nn(C)cc1Nc1nccc(-c2c[nH]c3c(NC(=O)[C@@H](C)N4CCN(C)CC4)cccc23)n1 [Example 32, (2R)-N-(3-{2-[(3-methoxy-1-methyl-1H-pyrazol-4-yl)amino]pyrimidin-4-yl}-1H-indol-7-yl)-2-(4-methylpiperazin-1-yl)propanamide]
knockdown of pSTAT3 in tumors (pSTAT3 (Y705) [1]): robust knockdown | tumor regrowth when Example 32 treatment was continued after 28 days of combination ([2]; Example 32 25 mg/kg BID alone 3 days on/4 days off/wk after the combination): tumors also regrew, but more slowly | antitumor activity, single agent Example 32, relative to vehicle ([2]; Example 32 25 mg/kg BID oral, 18 days): no significant antitumor activity; also recorded: no significant activity relative to vehicle control treatment | tumor regression, combination with osimertinib compared to osimertinib alone ([2]; osimertinib 25 mg/kg QD + Example 32 25 mg/kg BID (7 days, then 3 days on/4 days off/wk), 28 days): enhanced the tumor regression induced by osimertinib | tumor regrowth when treatment was stopped after 28 days [2]: tumors rapidly regrew | antitumor activity, single agent ([3]; Example 32 25 or 50 mg/kg BID oral, 21 days): only modest antitumor activity | antitumor activity of combination with gefitinib compared to single agent gefitinib ([3]; gefitinib 6.25 mg/kg QD + Example 32 25 or 50 mg/kg BID, 21 days): enhanced the antitumor activity of gefitinib | dose dependence of the enhancement of antitumor activity ([3]; gefitinib + Example 32 from 25 mg/kg to 50 mg/kg): increased with increasing dose of Example 32 | level of Example 32 in plasma [4]: increasing level of Example 32 in plasma | antitumor activity of combination with gefitinib compared to gefitinib (PC-9 tumor xenografts; gefitinib 6.25 mg/kg QD + Example 32, oral, 21 days): enhanced the antitumor activity of gefitinib | activity of combination compared to single agent gefitinib (PC-9 tumor xenografts; gefitinib + 12.5 mg/kg Example 32 daily, and + 50 mg/kg Example 32 2 days on/5 days off): greater activity than single agent gefitinib, but did not quite achieve statistical significance | dose dependence of the enhancement of antitumor activity (PC-9 tumor xenografts; gefitinib + Example 32 from 12.5 mg/kg to 50 mg/kg): increased with increasing dose of Example 32 | antitumor activity, single agent, relative to vehicle ([5]; Example 32 50 mg/kg BID oral, 19 days): no significant activity relative to vehicle control treatment | dose dependence of the enhancement of antitumor activity ([5]; Example 32 50 mg/kg BID vs. 25 mg/kg BID with osimertinib): greater at the higher dose of Example 32 | statistical significance of the difference, combination vs. osimertinib alone ([5]; after 26 days of treatment): statistically significant after 26 days of treatment at all schedules of Example 32, with the exception of the groups in which Example 32 was dosed only for the first 7 days | enhancement of osimertinib activity by schedule intensity of Example 32 (rank order) ([5]; osimertinib 2.5 mg/kg QD + Example 32): daily>4 on/3 off>7 on/7 off>2 on/5 off>just first 7 days | antitumor activity of combination with osimertinib compared to osimertinib alone ([5]; osimertinib 2.5 mg/kg QD + Example 32, continuous and intermittent schedules): enhanced the antitumor activity of osimertinib | pSTAT3 knockdown in tumors (pSTAT3 (Y705) [6]): dose dependent increase in the duration of pSTAT3 knockdown | pSTAT3 knockdown in tumors (pSTAT3): Knockdown of pSTAT3 was observed | antitumor activity, single agent, relative to vehicle ([7]; Example 32 12.5, 25 or 50 mg/kg BID oral, 18 days): no significant antitumor activity; also recorded: only weak antitumor activity | dose dependence of the enhancement of antitumor activity ([7]; osimertinib 2.5 mg/kg QD + Example 32 12.5 mg/kg up to 50 mg/kg): increased with increasing dose of Example 32 | antitumor activity of combination with osimertinib compared to osimertinib alone ([7]; osimertinib 2.5 mg/kg QD + Example 32 12.5, 25 or 50 mg/kg BID oral, 18 days): enhanced the antitumor activity of osimertinib | weight loss, single agent ([8]; mouse, in vivo): significant weight loss | pSTAT3 knockdown in tumors (pSTAT3 (Y705) [9]): dose dependent increase in pSTAT3 knockdown

C=CC(=O)Nc1cc(Nc2nccc(-c3cn(C)c4ccccc34)n2)c(OC)cc1N(C)CCN(C)C [osimertinib, reference compound]
antitumor activity, single agent osimertinib ([2]; osimertinib 25 mg/kg QD oral, 28 days): tumor regression | tumor regrowth when treatment was stopped after 28 days [2]: tumors rapidly regrew | knockdown of pEGFR in tumors (pEGFR): robust knockdown | weight loss, single agent ([8]; LG1049 tumor bearing NSG mice, weight loss ascribed to tumor growth): lack of significant weight loss
